Columns and labels:
Type in all cases: cell-based
human TLR9 = biological target: T1, human TLR9 (Homo sapiens, UniProt Q9NR96); experiment: TLR9 inhibition reporter assay (HEK-Blue cells, SEAP reporter, ODN2006 stimulation); details: HEK-Blue cells overexpressing human TLR9, SEAP reporter, ODN2006 5 nM
T1 construct: host or cells: HEK-Blue cells (HEK293-derived reporter line)
T1 sequence (Q9NR96 26-1032): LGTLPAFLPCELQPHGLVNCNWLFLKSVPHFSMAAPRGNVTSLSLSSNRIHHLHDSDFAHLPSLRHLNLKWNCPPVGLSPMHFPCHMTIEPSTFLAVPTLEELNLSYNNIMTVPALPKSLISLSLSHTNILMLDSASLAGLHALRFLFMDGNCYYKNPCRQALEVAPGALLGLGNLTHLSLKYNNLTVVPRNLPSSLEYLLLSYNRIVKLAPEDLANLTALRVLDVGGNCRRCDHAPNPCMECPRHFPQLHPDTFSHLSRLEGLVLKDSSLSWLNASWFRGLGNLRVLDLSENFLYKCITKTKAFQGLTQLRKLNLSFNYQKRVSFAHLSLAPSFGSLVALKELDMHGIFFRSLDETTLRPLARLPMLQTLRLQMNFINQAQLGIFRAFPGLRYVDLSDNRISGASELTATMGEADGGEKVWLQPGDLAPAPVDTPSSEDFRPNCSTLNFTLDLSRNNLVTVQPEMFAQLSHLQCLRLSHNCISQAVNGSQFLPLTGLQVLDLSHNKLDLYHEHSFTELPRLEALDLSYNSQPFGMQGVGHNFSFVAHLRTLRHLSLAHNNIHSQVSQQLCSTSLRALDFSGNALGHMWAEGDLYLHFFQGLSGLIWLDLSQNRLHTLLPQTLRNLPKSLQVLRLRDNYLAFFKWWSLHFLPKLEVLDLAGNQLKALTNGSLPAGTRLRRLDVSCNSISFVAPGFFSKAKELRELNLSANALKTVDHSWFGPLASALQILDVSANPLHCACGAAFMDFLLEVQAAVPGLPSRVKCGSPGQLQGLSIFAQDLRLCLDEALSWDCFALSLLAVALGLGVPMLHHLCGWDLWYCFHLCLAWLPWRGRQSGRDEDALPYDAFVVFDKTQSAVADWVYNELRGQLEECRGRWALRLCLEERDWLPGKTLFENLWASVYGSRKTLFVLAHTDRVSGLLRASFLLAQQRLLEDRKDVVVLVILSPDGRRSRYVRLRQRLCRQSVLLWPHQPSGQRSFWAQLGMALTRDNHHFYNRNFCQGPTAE
Summary of the method: (§1)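 Read-out is SEAP activity in HEK-Blue detection medium after 22 h at 37 °C, converted to percent inhibition against agonist-plus-DMSO and reference-inhibitor controls. Cells saw compound (0.05 nM–50 μM, 30 min, room temperature) before gardiquimod 7.5 μM, R848 15.9 μM or ODN2006 5 nM for TLR7, TLR8 and TLR9, respectively.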

human TLR7 = biological target: T2, human TLR7 (Homo sapiens, UniProt Q9NYK1); experiment: TLR7 inhibition reporter assay (HEK-Blue cells, SEAP reporter, gardiquimod stimulation); details: HEK-Blue cells overexpressing human TLR7, SEAP reporter, gardiquimod 7.5 μM
T2 construct: host or cells: HEK-Blue cells (HEK293-derived reporter line)
T2 sequence (Q9NYK1 27-1049): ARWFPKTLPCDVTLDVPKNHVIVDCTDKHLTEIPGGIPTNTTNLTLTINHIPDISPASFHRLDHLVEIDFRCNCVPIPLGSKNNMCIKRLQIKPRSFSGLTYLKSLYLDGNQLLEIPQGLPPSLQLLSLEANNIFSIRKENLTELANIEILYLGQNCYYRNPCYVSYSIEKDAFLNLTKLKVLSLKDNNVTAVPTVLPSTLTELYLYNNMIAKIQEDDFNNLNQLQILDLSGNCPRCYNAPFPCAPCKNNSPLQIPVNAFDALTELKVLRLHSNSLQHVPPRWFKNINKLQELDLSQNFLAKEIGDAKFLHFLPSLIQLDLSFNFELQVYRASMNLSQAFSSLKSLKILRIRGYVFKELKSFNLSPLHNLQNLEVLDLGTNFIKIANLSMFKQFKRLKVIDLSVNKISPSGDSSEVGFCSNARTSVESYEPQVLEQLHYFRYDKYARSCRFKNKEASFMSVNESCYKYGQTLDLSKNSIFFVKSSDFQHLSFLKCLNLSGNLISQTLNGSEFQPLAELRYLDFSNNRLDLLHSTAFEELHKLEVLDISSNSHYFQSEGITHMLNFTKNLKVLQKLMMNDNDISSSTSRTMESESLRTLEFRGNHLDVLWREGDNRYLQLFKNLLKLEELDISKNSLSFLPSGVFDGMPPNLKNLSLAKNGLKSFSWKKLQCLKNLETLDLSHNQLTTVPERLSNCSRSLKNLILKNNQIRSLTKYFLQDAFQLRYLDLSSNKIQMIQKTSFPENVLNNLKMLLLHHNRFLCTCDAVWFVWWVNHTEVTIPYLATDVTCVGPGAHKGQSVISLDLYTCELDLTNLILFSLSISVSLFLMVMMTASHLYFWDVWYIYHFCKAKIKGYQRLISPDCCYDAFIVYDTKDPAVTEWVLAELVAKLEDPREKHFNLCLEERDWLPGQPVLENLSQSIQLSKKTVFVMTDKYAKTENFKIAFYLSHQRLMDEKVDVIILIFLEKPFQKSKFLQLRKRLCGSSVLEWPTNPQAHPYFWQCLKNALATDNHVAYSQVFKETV
Summary of the method: as §1

human TLR8 = biological target: T3, human TLR8 (Homo sapiens, UniProt Q9NR97); experiment: TLR8 inhibition reporter assay (HEK-Blue cells, SEAP reporter, R848 stimulation); details: HEK-Blue cells overexpressing human TLR8, SEAP reporter, R848 15.9 μM
T3 construct: host or cells: HEK-Blue cells (HEK293-derived reporter line)
T3 sequence (Q9NR97 27-1041): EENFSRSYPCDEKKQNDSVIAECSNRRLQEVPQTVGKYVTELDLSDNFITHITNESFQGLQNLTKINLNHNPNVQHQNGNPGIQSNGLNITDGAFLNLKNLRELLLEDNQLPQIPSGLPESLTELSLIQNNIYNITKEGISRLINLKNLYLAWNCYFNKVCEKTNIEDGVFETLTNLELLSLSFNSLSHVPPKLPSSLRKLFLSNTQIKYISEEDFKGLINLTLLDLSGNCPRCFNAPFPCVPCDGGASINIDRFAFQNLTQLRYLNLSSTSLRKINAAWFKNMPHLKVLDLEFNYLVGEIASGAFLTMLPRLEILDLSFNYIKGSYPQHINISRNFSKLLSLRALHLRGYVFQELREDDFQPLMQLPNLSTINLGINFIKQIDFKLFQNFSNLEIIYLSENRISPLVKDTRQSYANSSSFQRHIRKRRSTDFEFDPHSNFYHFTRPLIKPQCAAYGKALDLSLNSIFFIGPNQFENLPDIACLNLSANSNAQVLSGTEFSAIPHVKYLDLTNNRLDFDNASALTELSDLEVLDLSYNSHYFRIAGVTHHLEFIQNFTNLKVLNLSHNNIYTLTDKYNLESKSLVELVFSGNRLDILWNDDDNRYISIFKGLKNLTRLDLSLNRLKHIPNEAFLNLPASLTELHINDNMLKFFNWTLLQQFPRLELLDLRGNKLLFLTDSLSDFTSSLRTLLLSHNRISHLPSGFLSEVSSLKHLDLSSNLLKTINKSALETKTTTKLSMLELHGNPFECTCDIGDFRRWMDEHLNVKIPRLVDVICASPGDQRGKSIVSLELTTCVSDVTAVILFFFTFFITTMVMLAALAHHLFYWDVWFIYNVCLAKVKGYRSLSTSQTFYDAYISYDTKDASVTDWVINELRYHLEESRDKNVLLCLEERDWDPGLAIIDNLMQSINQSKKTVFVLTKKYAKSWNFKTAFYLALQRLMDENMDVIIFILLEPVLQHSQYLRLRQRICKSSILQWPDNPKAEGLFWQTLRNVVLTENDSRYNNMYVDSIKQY
Summary of the method: as §1

| SMILES | IC50 (human TLR9) | IC50 (human TLR7) | IC50 (human TLR8) |
| --- | --- | --- | --- |
| CC(C)c1c(-c2ccnc3[nH]ncc23)[nH]c2ccc(C3CCNC(=O)C3)cc12 (stereo not drawn) [Example 248, 4-(3-Isopropyl-2-(1H-pyrazolo[3,4-b]pyridin-4-yl)-1H-indol-5-yl)piperidin-2-one] | > 50000 nM | 100 to 1000 nM | < 100 nM |
| Cc1cc(-c2[nH]c3ccc(C4CCNCC4)cc3c2C(C)C)cc2cnnn12 [Example 78, 5-(3-isopropyl-5-(piperidin-4-yl)-1H-indol-2-yl)-7-methyl-[1,2,3]triazolo[1,5-a]pyridine] | 1000 to 50000 nM | < 100 nM | < 100 nM |
| CCc1c(C)c(-c2[nH]c3ccc(C4CCNCC4)cc3c2C(C)C)cn2ccnc12 [Example 272, 8-ethyl-6-(3-isopropyl-5-(piperidin-4-yl)-1H-5 indol-2-yl)-7-methylimidazo[1,2-a]pyridine] | 100 to 1000 nM | < 100 nM | < 100 nM |
| Cc1c(-c2ccnc3[nH]cc(C)c23)[nH]c2ccc(C3CCNCC3)cc12 [Example 4, 3-methyl-4-(3-methyl-5-(piperidin-4-yl)-1H-indol-2-yl)-1H-pyrrolo[2,3-b]pyridine] | 100 to 1000 nM | 100 to 1000 nM | 100 to 1000 nM |
| CC(C)c1c(-c2ccc3cnnn3c2)[nH]c2ccc(C3CCN(C(=O)CN(C)C)CC3)cc12 [Example 464, 1-(4-(2-([1,2,3]triazolo[1,5-a]pyridin-6-yl)-3-isopropyl-1H-indol-5-yl)piperidin-1-yl)-2-(dimethylamino)ethan-1-one] | 100 to 1000 nM | 100 to 1000 nM | 100 to 1000 nM |
| Cc1cn2cc(-c3[nH]c4ccc(C5CCN(CC(=O)N(C)C)CC5)cc4c3C(C)C)c(C)cc2n1 [Example 375, 2-(4-(2-(2,7-dimethylimidazo[1,2-a]pyridin-6-yl)-3-isopropyl-1H-indol-5-yl)piperidin-1-yl)-N,N-dimethylacetamide] | < 100 nM | < 100 nM | 100 to 1000 nM |

Results, then the molecule that gave them:

| IC50 (human TLR9) | IC50 (human TLR7) | IC50 (human TLR8) | SMILES |
| --- | --- | --- | --- |
| 1000 to 50000 nM | < 100 nM | < 100 nM | Cc1cc(-c2[nH]c3ccc(C4CCN(S(=O)(=O)CCN(C)C)CC4)cc3c2C(C)C)cn2nnnc12 [Example 617, 2-((4-(3-isopropyl-2-(8-methyltetrazolo[1,5-a]pyridin-6-yl)-1H-indol-5-yl)piperidin-1-yl)sulfonyl)-N,N-dimethylethan-1-amine] |
| 1000 to 50000 nM | < 100 nM | 100 to 1000 nM | CC(C)c1c(-c2ccc3nccn3c2)[nH]c2ccc(C3CCN(C(=O)CN(C)C)CC3)cc12 [Example 572, 2-(dimethylamino)-1-(4-(2-(imidazo[1,2-a]pyridin-6-yl)-3-isopropyl-1H-indol-5-yl)piperidin-1-yl)ethan-1-one] |
| 1000 to 50000 nM | < 100 nM | < 100 nM | CC(C)c1c(-c2ccnc3[nH]ncc23)[nH]c2ccc(C3CCN(Cc4ncn(C)n4)CC3)cc12 [Example 865, 4-(3-isopropyl-5-(1-((1-methyl-1H-1,2,4-triazol-3-yl)methyl)piperidin-4-yl)-1H-indol-2-yl)-1H-pyrazolo[3,4-b]pyridine] |
| 1000 to 50000 nM | < 100 nM | < 100 nM | CC(C)c1c(-c2cnc3c(cnn3C)c2)[nH]c2ccc(C3CCN(CC(C)(C)O)CC3)cc12 [Example 764, 1-(4-(3-isopropyl-2-(1-methyl-1H-pyrazolo[3,4-b]pyridin-5-yl)-1H-indol-5-yl)piperidin-1-yl)-2-methylpropan-2-ol] |
| 1000 to 50000 nM | < 100 nM | < 100 nM | Cc1ccnc2[nH]cc(-c3[nH]c4ccc(C5CCN(C6CCOCC6)CC5)cc4c3C(C)C)c12 [Example 690, 3-(3-isopropyl-5-(1-(tetrahydro-2H-pyran-4-yl)piperidin-4-yl)-1H-indol-2-yl)-4-methyl-1H-pyrrolo[2,3-b]pyridine] |
| 100 to 1000 nM | < 100 nM | < 100 nM | CC(C)c1c(-c2cc(C(F)(F)F)c3nccn3c2)[nH]c2ccc(C3CCN(C(=O)CN(C)C)CC3)cc12 [Example 507, 2-(dimethylamino)-1-(4-(3-isopropyl-2-(8-(trifluoromethyl)imidazo[1,2-a]pyridin-6-yl)-1H-indol-5-yl)piperidin-1-yl)ethan-1-one] |
| 1000 to 50000 nM | < 100 nM | < 100 nM | CCOc1cc(-c2[nH]c3ccc(C4CCN(C(=O)CN(C)C)CC4)cc3c2C(C)C)cc2nc(C)nn12 [Example 497, 2-(dimethylamino)-1-(4-(2-(5-ethoxy-2-methyl-[1,2,4]triazolo[1,5-a]pyridin-7-yl)-3-isopropyl-1H-indol-5-yl)piperidin-1-yl)ethan-1-one] |
| > 50000 nM | < 100 nM | < 100 nM | Cc1cc(-c2[nH]c3ccc(C4CCN(CCC(F)(F)F)CC4)cc3c2C(C)C)cn2nnnc12 [Example 962, 6-(3-isopropyl-5-(1-(3,3,3-trifluoropropyl)piperidin-4-yl)-1H-indol-2-yl)-8-methyltetrazolo[1,5-a]pyridine] |

From patent publication US11739098B2 (BRISTOL-MYERS SQUIBB COMPANY, priority 2017, dated 2023)
